The test system of data set [1] is azole-resistant strain 904. Briefly: Biofilm formation. Type of data set: cell-based, Candida albicans.
Data set [2] deals with C. alb SC5314. The data set is described as follows: GC-MS analysis of sterol composition. Type of data set: cell-based, Candida albicans. The conditions noted are these: 0.03 μg mL^−1, 24 h.
The subject of data set [3] is Strain 904. The data set is described as follows: Time-kill test. Type of data set: cell-based, Candida albicans. The conditions noted are these: A11 at 8 × MIC, 16 × MIC, 32 × MIC.
Data set [4] has as its system azole-resistant strain 904. The data set is described as follows: In vivo antifungal potency, mouse infection model, kidney fungal burden. The conditions noted are these: mice, tail vein infection with strain 904, intraperitoneal, day 5.
A short description of data set [5]: Plasma stability assay. The conditions noted are these: male, SD, rat.
Data set [6] concerns azole-resistant strain 904. Briefly: Yeast-to-hypha morphological transition. The note with it: 0.25 μg mL^−1, 5 h. Type of data set: cell-based, Candida albicans.
Data set [7] deals with Strain 17#. Briefly: Antifungal activity against fluconazole-resistant strain. The note with it: Candida albicans, read-out: MIC80 Strain 17#. Format: cell-based.
Data set [8] concerns strain 904, fluconazole-resistant strain of C. albicans. Briefly: Minimum fungicidal concentration. Type of data set: cell-based, Candida albicans.
Data set [9] deals with Strain 901. The data set is described as follows: Antifungal activity against fluconazole-resistant strain. Format: cell-based. The note with it: Candida albicans, 901, read-out: MIC80 Strain 901.
In data set [10] the test system is C. alb SC5314. The data set is described as follows: Morphological observation of fungal cells by TEM. Type of data set: cell-based, Candida albicans. The conditions noted are these: 2 μg mL^−1, 24 h.
In data set [11] the test system is Strain CaR. Briefly: Antifungal activity against fluconazole-resistant strain. Format: cell-based. The note with it: Candida albicans, read-out: MIC80 Strain CaR.
The subject of data set [12] is Strain 904. The description is as above. Format: cell-based, Candida albicans. The conditions noted are these: for MIC80: Candida albicans, 904, read-out: MIC80 Strain 904; for MIC: Candida albicans, 904, read-out: MIC against C. alb.
Data set [13] in a line: Metabolic stability assay of liver microsomes. Format: in vitro ADME. The conditions noted are these: mouse.
For data set [14], the system named is five fluconazole-resistant strains obtained from clinical isolation. The data set is described as follows: Antifungal activity, span over five fluconazole-resistant strains. Type of data set: cell-based, Candida albicans.
Data set [15] has as its system ERG11 and CDR1 of azole-resistant strain 904. Briefly: RT-PCR expression of resistant genes ERG11 and CDR1. Type of data set: cell-based, Candida albicans. The note with it: 0.25 μg mL^−1, strain 904, RT-PCR.
In data set [16] the test system is C. neo. Briefly: In vitro antifungal assay. Type of data set: cell-based. The conditions noted are these: Cryptococcus neoformans, read-out: MIC80 C. neo.
Data set [17] deals with Strain 632. The data set is described as follows: Antifungal activity against fluconazole-resistant strain. Format: cell-based. The conditions noted are these: Candida albicans, 632, read-out: MIC80 Strain 632.
The subject of data set [18] is C. alb (SC5314). Briefly: In vitro antifungal assay. Type of data set: cell-based. The note with it: Candida albicans, SC5314, read-out: MIC80 C. alb (SC5314).
The test system of data set [19] is Strain 904. The data set is described as follows: ROS level. The note with it: 0.25 μg mL^−1, compared to blank and fluconazole groups. Format: cell-based, Candida albicans.
For data set [20], the system named is MRC-5 cells. Briefly: Cytotoxicity assay on normal cells. Type of data set: cell-based, human. The conditions noted are these: Homo sapiens, MRC5, 72 h, read-out: IC50 on MRC-5 cell lines.

Values after ≈ are worked out from the molar mass of the structure shown. “Also recorded” adds a separate entry of the source.

As a reminder, the half-life is how long it takes for the measured level to halve. A high value points to slow loss. By MIC80 is commonly meant an inhibitory concentration at the 80% level, which refers to growth in some studies and to a panel of isolates in others. In general, MIC refers to the smallest concentration in the dilution series that meets the test's criterion for growth inhibition. The term microsomal CLint denotes a measure of how fast metabolising enzymes remove a compound, apart from limits set by blood flow. Read a low microsomal CLint as greater metabolic stability. By IC50 is commonly meant the midpoint of a concentration-inhibition curve. For the compound `O=C(Nc1ccc(F)cc1F)c1ccc(COC(Cn2ccnc2)c2ccc(Cl)cc2Cl)cc1` (stereo not shown) [A11, 4-((1-(2,4-Dichlorophenyl)-2-(1H-imidazol-1-yl)ethoxy)methyl)-N-(2,4-difluorophenyl)benzamide], in data set [1], the “Effect on mature biofilms” value was “dose-dependent destruction of mature fungal biofilms”. In addition, the “Effect on ergosterol biosynthesis / sterol composition” value in data set [2] is recorded as “effectively suppresses ergosterol biosynthesis”. In addition, the Time-kill fungicidal effect result in data set [3] is “potent fungicidal effects at three concentrations”. Besides, in [4], the “Efficacy in vivo (CFU fungal burden in kidneys)” value is “potent efficacy; also recorded: significantly reduced fungal burden”. In addition, the half-life in data set [5] was greater than 6 h; in [13], 0.258 h. Also, in data set [5], the share remaining at 3 h stood at 73.9%. In addition, the “Morphological transition from yeast to hyphae” value in data set [6] is listed as “completely hindered the morphogenetic transition”. Moreover, the MIC80 in data set [7] is 1 µg/mL (≈ 1.99 µM); in data set [9] it was 1 µg/mL (≈ 1.99 µM); in data set [11], 2 µg/mL (≈ 3.98 µM); in data set [12], 0.125 µg/mL (≈ 0.249 µM); in data set [14] (Candida albicans, read-out: MIC80 span over the tested resistant strains), 0.125 to 2 µg/mL (≈ 0.249 to 3.98 µM); in data set [16], 0.06 µg/mL (≈ 0.119 µM). The MIC80 in data set [17] was determined as 2 µg/mL (≈ 3.98 µM); in data set [18], 0.03 µg/mL (≈ 0.0597 µM). The compound further showed an MFC/MIC in data set [8] (strain 904) of 16. Besides, the “Fungal cell morphology (TEM)” value in data set [10] was “disrupt the structural integrity of the cells”. In addition, the MIC in data set [12] is 0.125 µg/mL (≈ 0.249 µM). The microsomal CLint in data set [13] stood at 89.4 µL/min/mg. The “Expression of ERG11 and CDR1” value in data set [15] is reported as “reduced to basic levels”. Also, the “Intracellular ROS levels” value in data set [19] is “significant increase in intracellular ROS levels”. The IC50 in [20] was greater than 100 µM.

The MFC is the smallest concentration meeting the test's criterion for killing the fungus. As to `OC(Cn1cncn1)(Cn1cncn1)c1ccc(F)cc1F` [Fluconazole, fluconazole, reference compound], the “Effect on ergosterol biosynthesis / sterol composition” value in data set [2] was “effectively suppresses ergosterol biosynthesis”. Moreover, in [4], the “Efficacy in vivo (CFU fungal burden in kidneys)” value is on record as “ineffective”. Further, the half-life in data set [5] was greater than 6 h; in data set [13] it was greater than 2 h. Also, the fraction remaining at 3 h in data set [5] stood at 102%. Besides, the “Morphological transition from yeast to hyphae” value in data set [6] is “did not inhibit the morphological transition”. In addition, the MIC80 is greater than 128 µg/mL in [7]; greater than 128 µg/mL in data set [9]; greater than 128 µg/mL in data set [11]; greater than 128 µg/mL in data set [12]; 8 µg/mL (≈ 26.1 µM) in data set [16]; greater than 128 µg/mL in [17]. In addition, the MIC80 in data set [18] stood at 4 µg/mL (≈ 13.1 µM). Besides, in data set [8] (Candida albicans, read-out: MFC against C. alb), the MFC was greater than 128 µg/mL. For the same compound, the “Fungal cell morphology (TEM)” value in data set [10] is “the cell membrane was damaged”. For the same compound, the MIC in [12] is greater than 128 µg/mL. Further, in [13], the microsomal CLint stood at 2 µL/min/mg. Also, the “Antifungal activity against the tested resistant strains (in words)” value in data set [14] was “completely inactive”. In addition, the “Expression of ERG11 and CDR1” value in [15] is “overexpression of drug resistance gene ERG11 and CDR1”. In addition, the IC50 in data set [20] is greater than 100 µM.

The values are drawn from PMC11962866 (RSC Advances, 2025).
